Molecules are shown by their SMILES.

One series has as its system TZM-bl cells. Nature of the series: Cytotoxicity in TZM-bl cells (XTT). The class given is cell-based. The note with it: at the dose given as CC50 bound. How it is done: (§1) The cytotoxicity of small molecules in TZM-bl cells was measured by a colorimetric method using XTT (sodium 3′-(1-(phenylamino)-carbonyl)-3,4-tetrazolium-bis(4-methoxy-6-nitro)benzenesulfonic acid hydrate), a light yellowish tetrazolium dye. Briefly, 100 μl of a compound at graded concentrations was added to equal volume of cells (10^5/ml) in wells of 96-well plates followed by incubation at 37° C. for 3 days and addition of XTT (PolySciences, Inc., Warrington, Pa.).
(In general: Tetrazolium dyes change colour on reduction, which living cells bring about.)

For series [1], the system named is laboratory-adapted HIV-1 IIIB strain. Nature of the series: microbe, parasite or virus in culture. Conditions: Human immunodeficiency virus 1, IIIB, MT2, read-out: MT-2 Cells IC50 (μM ± SD).
A further series concerns MT-2 cells. Nature of the series: Cytotoxicity in MT-2 cells (XTT). The class given is cell-based. The note with it: MT-2 cells, XTT, four days; read-out: MT-2 Cells CC50. The protocol: (§2) Cytotoxicity of small molecules in MT-2 cells and PBMC was measured by the XTT ((sodium 3′-(1-(phenylamino)-carbonyl)-3,4-tetrazolium-bis(4-methoxy-6-nitro)benzene-sulfonic acid hydrate)) method. Briefly, for MT-2 cells, 100 μl of a small molecule at graded concentrations was added to an equal volume of cells (10^5 cells/ml) in 96-well plates followed by incubation at 37° C. for four days, which ran parallel with the neutralization assay in MT-2 (except medium was added instead of virus). In the case of PBMC, 5×10^5 cells/ml was used and the cytotoxicity was measured after seven days. […] The percentage cytotoxicity and the CC50 values were calculated as described above.

Series [2] can be described thus: Cytotoxicity in TZM-bl cells (XTT). The format is cell-based. The note with it: human; TZM-bl cells, XTT, 3 days; read-out: TZM-bl cells CC50 (μM ± SD). How it is done: as §1
The nature of series [3]: Cytotoxicity in MT-2 cells (XTT). The format is cell-based. The note with it: human; MT-2 cells, XTT, four days. The protocol: as §2

On to `CC(=O)N1CCCCC1C(NC(=O)C(=O)Nc1ccc(Cl)cc1)c1nc(C)c(CCO)s1` (centres unmarked) [Compound 13, N^1-((1-acetylpiperidin-2-yl)(5-(2-hydroxyethyl)-4-methylthiazol-2-yl)methyl)-N^2-(4-chlorophenyl)oxalamide], for which the “% toxicity at that dose (number in parenthesis), TZM-bl cells” value with TZM-bl cells is reported as 20%. Besides, the IC50 in series [1] is more than 52 µM.

Molecule `CCn1cc(NC(=O)C(=O)Nc2ccc(Cl)cc2)cn1` [Compound 17, N^1-(4-chlorophenyl)-N^2-(1-ethyl-1H-pyrazol-4-yl)oxalamide] gave a melting point of 232 to 233 °C. Also, the CC50 in the series with MT-2 cells was found to be 10.7 ± 1.6 µM.

Turning to `O=C(CCC(=O)Nc1ccc(Cl)cc1)NCc1ccc(S(=O)(=O)N2CCOCC2)cc1` [Compound 42, N^1-(4-chlorophenyl)-N^4-(4-(morpholinosulfonyl)benzyl)succinamide], the melting point is 208 to 209 °C (dec.). Further, in series [2], the CC50 at 3 days was approximately 30 µM. Moreover, the concentration for half-maximal inhibition (IC50) in series [1] came to 23.9 ± 1.8 µM. For the same molecule, in series [3], the midpoint of cytotoxicity, the CC50 at 4 days, lay at 21.2 ± 1.5 µM.

The molecule `O=C(CCC(=O)Nc1ccc(Cl)cc1)NCCCN1CCCC(O)C1` (centres unmarked) [Compound 43, N^1-(4-chlorophenyl)-N^4-(3-(3-hydroxypiperidin-1-yl)propyl)succinamide] showed a melting point of 122 to 123 °C. Also, the CC50 at 3 days in series [2] is approximately 82 µM. For the same molecule, the IC50 in series [1] was approximately 109 µM. This molecule showed a CC50 at 4 days in series [3] of approximately 109 µM.

`O=C(CCC(=O)Nc1ccc(Cl)cc1)NCCCN1CCC(O)CC1` [Compound 44, N^1-(4-chlorophenyl)-N^4-(3-(4-hydroxypiperidin-1-yl)propyl)succinamide] yielded a melting point of 154 to 155 °C. Also, the CC50 at 3 days in series [2] was approximately 109 µM. In addition, the IC50 in series [1] was more than 109 µM. Besides, the CC50 at 4 days in series [3] is more than 109 µM.

In the case of `CC1CCCN(c2ccccc2CNC(=O)CCC(=O)Nc2ccc(Cl)cc2)C1` (centres unmarked) [Compound 45, N^1-(4-chlorophenyl)-N^4-(2-(3-methylpiperidin-1-yl)benzyl)succinamide], the melting point was 162 to 163 °C. Further, the CC50 at 3 days in series [2] was more than 97 µM. Also, the IC50 in series [1] is more than 97 µM. In series [3], this molecule came in with a 50% cytotoxic concentration (CC50) at 4 days of more than 97 µM.

As to `CCC(CN1CCOCC1)NC(=O)CCC(=O)Nc1ccc(Cl)cc1` (centres unmarked) [Compound 46, N^1-(4-chlorophenyl)-N^4-(1-morpholinobutan-2-yl)succinamide], the CC50 at 3 days in series [2] was more than 109 µM. The IC50 in series [1] was found to be 33.2 ± 2.2 µM. For the same molecule, in series [3], half-maximal cytotoxicity (CC50 at 4 days) was put at 41.9 ± 1.6 µM.

For `Cc1nc2ncccn2c1CN1CCC(NC(=O)CCC(=O)Nc2ccc(Cl)cc2)CC1` [Compound 50, N^1-(4-chlorophenyl)-N^4-(1-((2-methylimidazo[1,2-a]pyrimidin-3-yl)methyl)piperidin-4-yl)succinamide], the CC50 at 3 days in series [2] is more than 88 µM. Moreover, the IC50 in series [1] was more than 33 µM. Further, the CC50 at 4 days in series [3] was more than 88 µM.

The term IC50 denotes the concentration at which inhibition is half-maximal. The melting point is the temperature of the solid-liquid transition. The CC50 is the concentration giving 50% cytotoxicity.

(Values after patent publication US20140377219A1, “HIV INHIBITORS” (New york Blood Center, Inc., priority 2011, published 2014).)
